According to ChEMBL document CHEMBL4177534, “Discovery and evaluation of 1H-pyrrolo[2,3-b]pyridine based selective and reversible small molecule BTK inhibitors for the treatment of rheumatoid arthritis” (Bioorg Med Chem Lett, 2017):

Tests used:
[1] = Metabolic stability in human liver microsomes assessed as metabolism rate; type: ADME, microsome
[2] = target: Tyrosine-protein kinase BTK (Homo sapiens, UniProt Q06187); test: Inhibition of recombinant human full length BTK preincubated for 10 mins followed by Tk-biotin peptide substrate addition after 90 mins by TR-FRET assay
[3] = Metabolic stability in mouse liver microsomes assessed as metabolism rate; type: ADME, microsome
[4] = target: Tyrosine-protein kinase BTK (Mus musculus, UniProt P35991); test: Inhibition of C57BL/6J mouse BTK assessed as decrease in anti-mouse IgM antibody stimulated BCR mediated CD69 upregulation preincubated for 30 mins followed by antibody challenge after 18 to 24 hrs by flow cytometry
[5] = Metabolic stability in rat liver microsomes assessed as metabolism rate; type: ADME, microsome
[6] = Equilibrium aqueous solubility of the compound at pH 7.4; type: physicochemical
[7] = Equilibrium aqueous solubility of the compound at pH 4; type: physicochemical

Sequence of Tyrosine-protein kinase BTK (Homo sapiens, UniProt Q06187) (Q06187 whole entry): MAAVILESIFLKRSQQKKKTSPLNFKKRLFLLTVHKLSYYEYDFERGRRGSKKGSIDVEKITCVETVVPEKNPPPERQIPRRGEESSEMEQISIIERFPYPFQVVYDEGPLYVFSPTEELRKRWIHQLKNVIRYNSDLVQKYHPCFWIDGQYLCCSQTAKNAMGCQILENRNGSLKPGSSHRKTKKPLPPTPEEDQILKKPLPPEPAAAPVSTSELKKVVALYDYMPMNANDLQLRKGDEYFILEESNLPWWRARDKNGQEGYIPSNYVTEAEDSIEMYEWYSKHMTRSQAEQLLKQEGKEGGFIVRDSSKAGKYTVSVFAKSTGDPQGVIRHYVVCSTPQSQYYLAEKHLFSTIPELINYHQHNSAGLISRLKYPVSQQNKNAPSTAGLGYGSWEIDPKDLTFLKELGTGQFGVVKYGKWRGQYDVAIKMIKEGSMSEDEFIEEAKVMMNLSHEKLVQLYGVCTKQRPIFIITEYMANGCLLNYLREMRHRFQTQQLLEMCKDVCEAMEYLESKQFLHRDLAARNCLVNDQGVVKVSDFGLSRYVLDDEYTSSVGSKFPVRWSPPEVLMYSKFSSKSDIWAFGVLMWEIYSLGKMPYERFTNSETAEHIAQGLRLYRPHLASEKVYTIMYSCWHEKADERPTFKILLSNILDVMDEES
Sequence of Tyrosine-protein kinase BTK (Mus musculus, UniProt P35991) (P35991 whole entry): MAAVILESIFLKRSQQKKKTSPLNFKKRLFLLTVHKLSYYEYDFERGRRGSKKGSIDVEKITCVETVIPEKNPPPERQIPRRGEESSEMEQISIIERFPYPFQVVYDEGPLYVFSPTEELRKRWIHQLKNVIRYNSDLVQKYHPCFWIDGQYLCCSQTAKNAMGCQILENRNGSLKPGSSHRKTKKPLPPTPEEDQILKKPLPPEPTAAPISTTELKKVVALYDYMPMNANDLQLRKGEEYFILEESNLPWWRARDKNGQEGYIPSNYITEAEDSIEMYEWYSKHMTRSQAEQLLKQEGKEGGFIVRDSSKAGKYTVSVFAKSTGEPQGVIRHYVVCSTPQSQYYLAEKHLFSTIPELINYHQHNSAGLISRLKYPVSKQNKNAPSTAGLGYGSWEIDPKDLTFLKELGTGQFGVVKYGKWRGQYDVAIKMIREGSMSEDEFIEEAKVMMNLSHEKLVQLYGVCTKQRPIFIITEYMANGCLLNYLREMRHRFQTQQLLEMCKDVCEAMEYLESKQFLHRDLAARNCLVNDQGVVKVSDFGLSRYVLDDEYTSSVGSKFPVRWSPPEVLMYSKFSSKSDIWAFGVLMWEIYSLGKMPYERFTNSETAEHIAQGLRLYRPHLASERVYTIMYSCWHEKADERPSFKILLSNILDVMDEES

Drug metabolism [1] [nmol/min/mg] | IC50 [2] [nM] | Drug metabolism [3] [nmol/min/mg] | IC50 [4] [nM] | Drug metabolism [5] [nmol/min/mg] | solubility thermodynamic [6] [µM] | solubility thermodynamic [7] [µM] | Compound
< 0.04 | 1.1 | 0.04 | 14.7 | 0.04 | – | – | CC1(O)CN(C(=O)N2CC=C(c3cc4c(-c5cccc(N6CCOc7cc(C8CC8)cc(F)c7C6=O)c5CO)ccnc4[nH]3)CC2)C1
0.04 | – | 0.1 | 75 | 0.09 | < 20 | < 100 | CC(C)(O)CN1CC=C(c2cc3c(-c4cccc(N5CCOc6cc(C7CC7)cc(F)c6C5=O)c4CO)ccnc3[nH]2)CC1
– | 5.4 | – | 14 | – | – | – | CN1CCN(Cc2ccc(-c3cc4c(-c5cccc(N6CCOc7cc(C8CC8)ccc7C6=O)c5CO)ccnc4[nH]3)nc2)CC1
– | 6.8 | – | 81 | – | – | – | CC1(O)CCN(Cc2ccc(-c3cc4c(-c5cccc(N6CCOc7cc(C8CC8)ccc7C6=O)c5CO)ncnc4[nH]3)cc2)CC1
0.07 | – | < 0.04 | 51.2 | < 0.04 | – | – | N#CCC(=O)N1CC=C(c2cc3c(-c4cccc(N5CCOc6cc(C7CC7)cc(F)c6C5=O)c4CO)ccnc3[nH]2)CC1
– | 21 | – | – | – | – | – | Cc1c(-c2ncnc3[nH]c(-c4ccc(CN5CCN(C)CC5)cc4)cc23)cccc1N1CCOc2cc(C3CC3)ccc2C1=O
– | 2.6 | – | 51 | – | – | – | CN1CCC(Oc2ccc(-c3cc4c(-c5cccc(N6CCOc7cc(C8CC8)ccc7C6=O)c5CO)ncnc4[nH]3)cc2)CC1
– | – | – | 36 | – | – | – | CN1CCN(c2ccc(-c3cc4c(-c5cccc(N6CCOc7cc(C8CC8)ccc7C6=O)c5CO)ncnc4[nH]3)cc2)CC1
0.07 | 5.5 | 0.09 | 17.7 | 0.05 | – | – | CS(=O)(=O)N1CC=C(c2cc3c(-c4cccc(N5CCOc6cc(C7CC7)cc(F)c6C5=O)c4CO)ccnc3[nH]2)CC1
– | 8.3 | – | 59 | – | – | – | O=C1c2ccc(C3CC3)cc2OCCN1c1cccc(-c2ncnc3[nH]c(-c4ccc(CN5CCOCC5)cc4)cc23)c1CO
– | 6.5 | – | 48 | – | – | – | CN1CCN(Cc2ccc(-c3cc4c(-c5cccc(N6CCOc7cc(C8CC8)ccc7C6=O)c5CO)ncnc4[nH]3)cc2)CC1
0.05 | – | 0.1 | 8.3 | < 0.04 | < 20 | < 100 | O=C1c2c(F)cc(C3CC3)cc2OCCN1c1cccc(-c2ccnc3[nH]c(-c4cnn(C5CCN(C6COC6)CC5)c4)cc23)c1CO
– | 5.1 | – | 54 | – | – | – | CN1CC(Oc2ccc(-c3cc4c(-c5cccc(N6CCOc7cc(C8CC8)ccc7C6=O)c5CO)ncnc4[nH]3)cc2)C1
– | – | – | 32 | – | – | – | CN1CCC(n2cc(-c3cc4c(-c5cccc(N6CCOc7cc(C8CC8)ccc7C6=O)c5CO)ncnc4[nH]3)cn2)CC1
< 0.04 | – | 0.06 | 5.5 | 0.15 | – | – | CN1CCN(Cc2ccc(-c3cc4c(-c5cccc(N6CCOc7cc(C8CC8)cc(F)c7C6=O)c5CO)ccnc4[nH]3)nc2)CC1
0.05 | – | 0.05 | 5.8 | 0.05 | – | – | CN(C)C(=O)N1CC=C(c2cc3c(-c4cccc(N5CCOc6cc(C7CC7)cc(F)c6C5=O)c4CO)ccnc3[nH]2)CC1
